{"source": "paper PMC12311259", "about": "“Antifibrotic effects of specific targeting of the 5‐hydroxytryptamine 2B receptor (5‐HT2BR) in murine models and ex vivo models of scleroderma skin” (Arthritis & Rheumatology (Hoboken, N.j.), 2025)", "system": "Bleomycin-induced pulmonary fibrosis", "test": "Bleomycin-induced pulmonary fibrosis in mice", "assay_type": "in vivo, mouse", "conditions": "30 mg/kg orally qd, relative to AM1476", "experimental": "Pulmonary fibrosis was induced by a single intratracheal instillation of bleomycin (25 μg in 50 μL of 0.9% NaCl).[12] Treatment was initiated at two weeks after the first injection of bleomycin. AM1476 was administered orally at 1, 3, or 10 mg/kg once daily. Solvent (double‐distilled water) was used as a control, and nintedanib at 30 mg/kg orally every day (qd) was included as a comparator. The outcome was analyzed at two and four weeks after the first injection of bleomycin. Mice injected with 0.9% NaCl, the vehicle of bleomycin, served as nonfibrotic controls. Eight mice per group were analyzed.\nSkin samples were fixed in 4% formalin for six hours and embedded in paraffin. Five‐micrometer sections were cut and stained with hematoxylin and eosin (H&E). The dermal thickness was quantified on H&E‐stained sections using images captured with a light microscope (Nikon eclipse 80i) at 100‐fold magnification by manually measuring the distance between the epidermal‐dermal junction and the dermal‐subcutaneous fat junction at four sites per mouse.[15], [16] For lung samples, the whole left lung was fixed in 4% formalin for six hours and embedded in paraffin. Five‐micrometer sections were cut and stained with trichrome and sirius red. Histologic readouts were evaluation of the fibrotic area as the percentage of the total lung area in sirius red–stained sections (two sections per mouse) and quantification of pulmonary changes using the Ashcroft score (four sections per mouse).[17], [18]\nThe amount of collagen protein in skin and lung samples was determined by hydroxyproline assay.[19], [20] After digestion in 6 M HCl for three hours at 120°C, the pH of the samples was adjusted to a pH range of 6–7 with 6 M NaOH. Afterward, 0.06 M chloramine T was added to each sample and incubated for 20 minutes at room temperature. Next, 3.15 M perchloric acid and 20% p‐dimethylaminobenzaldehyde were added, and samples were incubated for an additional 20 minutes at 60°C. The absorbance was determined at 557 nm with a Spectra MAX 190 microplate spectrophotometer. Absolute values were determined using a standard curved generated with type I collagen (Sigma‐Aldrich).", "data": [{"smiles": "COC(=O)c1ccc2c(c1)NC(=O)/C2=C(\\Nc1ccc(N(C)C(=O)CN2CCN(C)CC2)cc1)c1ccccc1", "note": "[nintedanib, reference compound]", "values": [{"measurement": "antifibrotic effects across the different readouts", "value": "comparable"}]}]}
